In PMC9502272, “A Metabolomics Approach for Predicting OATP1B-Type Transporter-Mediated Drug–Drug Interaction Liabilities” (Pharmaceutics, 2022):
Where a name gives a salt, the structure may show the parent alone.

Biological target: T1, Oatp1b2 (Mus musculus, UniProt Q9JJL3)
T1 sequence (Q9JJL3 1-689): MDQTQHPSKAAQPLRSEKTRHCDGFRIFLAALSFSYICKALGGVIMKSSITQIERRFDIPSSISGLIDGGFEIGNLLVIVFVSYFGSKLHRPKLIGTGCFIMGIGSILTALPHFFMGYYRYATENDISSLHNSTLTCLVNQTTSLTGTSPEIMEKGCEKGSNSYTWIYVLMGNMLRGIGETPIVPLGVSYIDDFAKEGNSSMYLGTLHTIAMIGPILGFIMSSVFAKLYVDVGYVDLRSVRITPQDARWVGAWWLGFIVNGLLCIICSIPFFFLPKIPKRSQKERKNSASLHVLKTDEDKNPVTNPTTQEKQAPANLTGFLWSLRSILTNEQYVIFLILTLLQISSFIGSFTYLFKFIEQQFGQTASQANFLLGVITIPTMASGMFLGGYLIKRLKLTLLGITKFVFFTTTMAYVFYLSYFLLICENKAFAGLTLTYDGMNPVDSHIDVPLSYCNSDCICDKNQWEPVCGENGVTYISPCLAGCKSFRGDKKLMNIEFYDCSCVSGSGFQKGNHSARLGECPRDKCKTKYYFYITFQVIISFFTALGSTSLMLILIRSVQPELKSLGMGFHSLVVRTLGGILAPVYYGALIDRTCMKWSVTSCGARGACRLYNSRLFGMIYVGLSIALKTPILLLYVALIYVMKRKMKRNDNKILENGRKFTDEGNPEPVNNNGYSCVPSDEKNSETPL
Assay: Untargeted metabolomics of plasma from untreated wild-type and Oatp1b2(−/−) mice
Conditions: for Fold of Change KO/WT: plasma of untreated Oatp1b2-deficient (KO) vs wild-type (WT) mice, semi-quantitative, positive = higher in KO, n = 6 per group; for Mean value KO: plasma of untreated Oatp1b2-deficient mice; for Mean value KO / Mean value WT: raw area counts rescaled to median = 1; for Mean value WT: plasma of untreated wild-type mice
Procedure: For all experiments, age- and sex-matched mice (8–12 weeks old) were used. […] Mice with a deficiency of Oatp1b2 (Oatp1b2(−/−) mice), the single murine orthologue of OATP1B1 and OATP1B3 in humans, on a DBA/1LacJ background were kindly provided by Drs. Richard B. Kim (Western University, London, Ontario, Canada) and Jeffrey L. Stock (Pfizer, Groton, CT, USA).
Plasma samples from untreated wild-type mice and Oatp1b2(−/−) mice were analyzed for structurally named and unknown molecules using a non-targeted semi-quantitative liquid chromatography-tandem mass spectrometry (LC-MS/MS) and gas chromatography-mass spectrometry platforms (Metabolon, Durham, NC, USA). Compounds were identified by comparison with library entries of purified standards or recurrent unknown entities.

Compound	Fold of Change KO/WT	Mean value KO	Mean value WT
C[C@H](CCC(=O)O)[C@H]1CC[C@H]2[C@@H]3CC[C@@H]4C[C@H](O)CC[C@]4(C)[C@H]3C[C@H](OS(=O)(=O)O)[C@]12C [deoxycholic acid 12-sulfate]	1.25	1.06	.851
enterolactone sulfate	3.42	1.63	.478
CCCCCCCC/C=C\CCCCCCCC(=O)O[C@H](COC(=O)CCCCCCCCCCCCCCC)COP(=O)(O)OCCN [1-palmitoyl-2-oleoyl-GPE (16:0/18:1)]	1.46	1.24	.847
CSC=CC(O)C(O)C(=O)O (stereo not shown) [2,3-dihydroxy-5-methylthio-4-pentenoate (DMTPA)]	1.34	1.23	.915
CCCCCCCCCCCCCC/C=C\OC[C@@H](O)COP(=O)(O)OCCN [1-(1-enyl-palmitoyl)-GPE (P-16:0)]	1.79	1.30	.725
linolenoylcarnitine (C18:3)	1.91	1.51	.794
CCCCCCCC/C=C\CCCCCCCC(N)=O [oleamide]	1.38	1.22	.886
CCCCCCCC(=O)O[C@H](CC(=O)O)C[N+](C)(C)C [octanoylcarnitine (C8)]	1.62	1.47	.910
C[N+]1(C)CCCC[C@H]1C(=O)[O-] [homostachydrine]	1.19	1.09	.915
COC1=C(O)[C@@H]([C@@H](O)CO)OC1=O [2-O-methylascorbic acid]	1.16	1.08	.927
CCCCC/C=C\C/C=C\C/C=C\C/C=C\CCCC(=O)OC[C@@H](O)COP(=O)(O)O [1-arachidonoyl-GPA (20:4)]	1.80	1.17	.652
C[N+](C)(C)CCOP(=O)([O-])OC[C@H](O)CO [glycerophosphorylcholine (GPC)]	1.34	1.12	.836
tauroursodeoxycholic acid sulfate (2)	2.18	1.12	.513
CCCCC/C=C\C/C=C\CCCCCCCC(=O)OC[C@@H](O)COP(=O)([O-])OCC[N+](C)(C)C [1-linoleoyl-GPC (18:2)]	1.62	1.22	.752
CCCCCCCCCCCCCCCCC(=O)OC(CC(=O)[O-])C[N+](C)(C)C (stereo not shown) [margaroylcarnitine (C17)]	1.59	1.21	.764
O=C(O)Cc1cn(C2O[C@H](CO)[C@@H](O)[C@H]2O)cn1 (stereo partly shown) [1-ribosyl-imidazoleacetate]	1.64	1.34	.818
CCCCCCCCCCCCCCCCCCCC(=O)OC(CC(=O)[O-])C[N+](C)(C)C (stereo not shown) [arachidoylcarnitine (C20)]	1.36	1.21	.889
C[C@H](CCC(=O)O)[C@H]1CC[C@H]2[C@@H]3[C@@H](O)C[C@@H]4C[C@H](O)CC[C@]4(C)[C@H]3CC[C@]12C [ursodeoxycholate]	4.07	2.16	.530
sphingomyelin (d17:1/14:0, d16:1/15:0)	1.32	1.02	.769
CCCCCCCC/C=C\CCCCCCCC(=O)O[C@H](CC(=O)[O-])C[N+](C)(C)C [oleoylcarnitine (C18:1)]	1.56	1.40	.900
O=C(O)[C@H]1OC(O)[C@H](O)[C@@H](O)[C@@H]1O (mixture of isomers) [glucuronate]	3.17	1.59	.500
CC(=O)Nc1ccn([C@@H]2O[C@H](CO)[C@@H](O)[C@H]2O)c(=O)n1 [N4-acetylcytidine]	1.36	1.12	.819
OC[C@H]1O[C@@H](n2cnc3c(O)ncnc32)[C@H](O)[C@@H]1O [inosine]	2.07	1.49	.719

Compound	Fold of Change KO/WT	Mean value KO	Mean value WT
pregnenediol disulfate (C21H34O8S2)	2.14	1.16	.540
O=C(O)CCCCCCCCC(=O)O [sebacate (C10-DC)]	1.44	1.20	.833
CC(C)C(O)C(=O)O (stereo not drawn) [alpha-hydroxyisovalerate]	1.68	1.43	.850
O=S(=O)(O)Oc1ccccc1 [phenol sulfate]	1.40	1.23	.879
CCCCCCCC/C=C\CCCCCC/C=C\OC[C@@H](O)COP(=O)(O)OCCN [1-(1-enyl-oleoyl)-GPE (P-18:1)]	2.16	1.45	.672
C[C@H](CCC(=O)O)[C@H]1CC[C@H]2[C@@H]3[C@@H](O)C[C@@H]4C[C@H](O)CC[C@]4(C)[C@H]3C[C@H](O)[C@]12C [ursocholate]	33.8	5.10	.151
CCCCCC(=O)NCC(=O)O [hexanoylglycine]	1.59	1.40	.880
CCCCCCCCCCCCCCCC(=O)OC[C@@H](O)COP(=O)(O)OCCN [1-palmitoyl-GPE (16:0)]	1.73	1.33	.765
CC(C)CCC[C@@H](C)[C@H]1CC[C@H]2[C@@H]3CC=C4C[C@@H](OS(=O)(=O)O)CC[C@]4(C)[C@H]3CC[C@]12C [cholesterol sulfate]	1.23	1.08	.875
CC/C=C\C/C=C\C/C=C\CCCCCCCC(=O)O[C@H](COC(=O)CCCCCCC/C=C\CCCCCC)COP(=O)([O-])OCC[N+](C)(C)C [1-palmitoleoyl-2-linolenoyl-GPC (16:1/18:3)]	1.86	1.46	.784
sphingomyelin (d18:2/16:0, d18:1/16:1)			.940
C[C@H](CCC(=O)O)[C@H]1CC[C@H]2[C@@H]3C(=O)C[C@@H]4C[C@H](O)CC[C@]4(C)[C@H]3C[C@H](O)[C@]12C [7-ketodeoxycholate]	6.23	2.26	.362
CCC(C)C(O)C(=O)O (stereo not shown) [2-hydroxy-3-methylvalerate]	3.15	2.33	.738
CCCCC/C=C\C/C=C\C/C=C\C/C=C\CCCC(=O)OC[C@@H](O)COP(=O)([O-])OCC[N+](C)(C)C [1-arachidonoyl-GPC (20:4n6)]	1.63	1.27	.775
CCCCC/C=C\C/C=C\C/C=C\C/C=C\CCCC(=O)OC[C@@H](O)COP(=O)(O)OC1C(O)C(O)C(O)C(O)C1O (stereo partly shown) [1-arachidonoyl-GPI (20:4)]	1.48	1.11	.754
O=C(O)[C@H]1O[C@@H](Oc2ccccc2)[C@H](O)[C@@H](O)[C@@H]1O [phenol glucuronide]	1.87	1.28	.684
OC[C@@H](O)[C@@H](O)CO [erythritol]	1.31	1.22	.927
CCCCC/C=C\C/C=C\CCCCCCCC(N)=O [linoleamide (18:2n6)]	1.36	1.29	.945
CCCCCCCCCCCCCCCC/C=C\OC[C@@H](O)COP(=O)(O)OCCN [1-(1-enyl-stearoyl)-GPE (P-18:0)]	1.72	1.28	.747
Cc1ncc(CO)c(C=O)c1O [pyridoxal]	1.47	1.28	.868
CCCCCCCCCCCCCCCC(=O)OC[C@H](COP(=O)(O)OCCN)OC(=O)CCCCCCCCCCCCCCC [1,2-dipalmitoyl-GPE (16:0/16:0)]	2.02	1.34	.664
O=C(O)CNC(=O)/C=C/c1ccccc1 [cinnamoylglycine]	1.99	1.54	.776
